# Experimental data as given in patent EP4722212A1, “NOVEL COMPOUND FOR INHIBITING PROTEIN KINASES AND PHARMACEUTICAL COMPOSITION COMPRISING SAME” (Magicbullettherapeutics Co., Ltd., priority 2023, dated 2024).
# Target: T1, ACK1 (Homo sapiens, UniProt Q07912)
# T1 construct: purchased Reaction Biology (RBC)
# Test: Enzyme activity inhibition (Reaction Biology)
# Assay type: biochemical
# Conditions: not given
# Experimental: [* <10 nM: A, <100 nM: B, >100 nM: C]. [Table 7]
# T1 sequence (Q07912 whole entry): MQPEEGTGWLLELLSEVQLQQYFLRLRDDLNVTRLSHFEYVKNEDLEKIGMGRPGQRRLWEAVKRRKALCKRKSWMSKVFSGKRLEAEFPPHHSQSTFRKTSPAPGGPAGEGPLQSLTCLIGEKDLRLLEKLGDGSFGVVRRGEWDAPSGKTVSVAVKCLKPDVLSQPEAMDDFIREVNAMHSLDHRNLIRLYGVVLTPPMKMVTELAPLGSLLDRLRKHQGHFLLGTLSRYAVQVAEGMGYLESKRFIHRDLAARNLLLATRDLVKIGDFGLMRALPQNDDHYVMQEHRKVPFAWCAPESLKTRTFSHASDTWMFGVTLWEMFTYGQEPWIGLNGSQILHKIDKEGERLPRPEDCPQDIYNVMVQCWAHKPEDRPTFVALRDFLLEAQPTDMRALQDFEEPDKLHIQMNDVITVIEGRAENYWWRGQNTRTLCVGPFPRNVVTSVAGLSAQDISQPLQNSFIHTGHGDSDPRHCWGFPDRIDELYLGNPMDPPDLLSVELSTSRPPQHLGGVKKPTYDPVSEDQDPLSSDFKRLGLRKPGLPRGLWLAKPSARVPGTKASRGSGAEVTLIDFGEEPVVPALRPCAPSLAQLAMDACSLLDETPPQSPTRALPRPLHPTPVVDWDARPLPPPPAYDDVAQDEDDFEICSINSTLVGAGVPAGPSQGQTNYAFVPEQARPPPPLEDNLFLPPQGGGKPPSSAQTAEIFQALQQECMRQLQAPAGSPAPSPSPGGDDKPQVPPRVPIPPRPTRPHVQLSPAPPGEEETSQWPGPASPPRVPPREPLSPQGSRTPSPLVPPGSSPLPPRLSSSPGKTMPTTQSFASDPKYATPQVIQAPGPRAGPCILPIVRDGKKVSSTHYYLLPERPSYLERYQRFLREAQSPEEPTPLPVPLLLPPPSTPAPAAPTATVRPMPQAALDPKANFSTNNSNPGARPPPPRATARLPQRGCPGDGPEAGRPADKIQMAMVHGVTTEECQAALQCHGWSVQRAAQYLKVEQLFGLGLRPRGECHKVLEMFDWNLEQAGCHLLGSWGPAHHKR
row,IC50,Compound
1,0.01 to 0.1 µM,"Cc1ccc(NC(=O)c2cccc(C(F)(F)F)c2)cc1N1Cc2cnc(NO)nc2C2(CC2)C1=O [Compound 70, N-(3-(2'-(hydroxyamino)-7'-oxo-5'H-spiro[cyclopropane-1,8'-pyrido[4,3-d]pyrimidine]-6'(7'H)-yl)-4-methylphenyl)-3-(trifluoromethyl)benzamide]"

# Test system: C4-2B
# Test: Cell line inhibition analysis (CCK-8, 72 h)
# Assay type: cell-based
# Conditions: read-out: Cell growth inhibition GI50 C4-2B
# Experimental: C4-2B and 22Rv1 cells were purchased from ATCC and cultured according to the manufacturer's instructions. The cells were seeded in 96-well plates at 7×10^3cells/100 µl/well and allowed to attach for one day. After removing the culture medium, 90 µl/well of fresh culture medium was added, followed by addition of 10 µl/well of culture medium containing compounds at nine concentrations (0.076-500 µM) serially diluted 3-fold and DMSO control to achieve final concentrations of 0-50 µM, and then cultured for 72 hours in a 37 °C CO2 incubator. Cell proliferation after 72 hours was assessed by adding 10 µl/well of CCK-8 solution, orbital shaking for 30 seconds, then incubating at 37 °C CO2 incubator for 2 hours and measuring absorbance at 450 nm using a microplate reader. The measured absorbance values were corrected by subtracting the absorbance of wells containing only culture medium and CCK-8 solution, and GI50 values were calculated using GraphPad Prism 8 software.
# Meanwhile, in a separate 96-well plate, cells were seeded at 7 × 10^3 cells/100 µl/well, allowed to attach for one day, CCK-8 solution was added, and absorbance was measured to establish the 'Growth (%) = 0' value.
row,Compound,GI50
1,"Cc1ccc(NC(=O)c2cc(F)cc(F)c2)cc1N1Cc2cnc(N)nc2C2(CC2)C1=O [Compound 15, N-(3-(2'-amino-7'-oxo-5'H-spiro[cyclopropane-1,8'-pyrido[4,3-d]pyrimidine]-6'(7'H)-yl)-4-methylphenyl)-3,5-difluorobenzamide]",5 to 10 µM
2,"Cc1ccc(NC(=O)c2cc(N(C)CCN(C)C)cc(C(F)(F)F)c2)cc1N1Cc2cnc(NC3CC3)nc2C2(CC2)C1=O [Compound 36, N-(3-(2'-(cyclopropylamino)-7'-oxo-5'H-spiro[cyclopropane-1,8'-pyrido[4,3-d]pyrimidine]-6'(7'H)-yl)-4-methylphenyl)-3-((2-(dimethylamino)ethyl)(methyl)amino)-5-(trifluoromethyl)benzamide]",5 to 10 µM
3,"Cc1ccc(NC(=O)c2ccc(F)cc2F)cc1N1Cc2cnc(N)nc2C2(CC2)C1=O [Compound 14, N-(3-(2'-amino-7'-oxo-5'H-spiro[cyclopropane-1,8'-pyrido[4,3-d]pyrimidine]-6'(7'H)-yl)-4-methylphenyl)-2,4-difluorobenzamide]",> 10 µM
4,"Cc1ccc(NC(=O)c2cc(N3CCNCC3)cc(C(F)(F)F)c2)cc1N1Cc2cnc(NC3CC3)nc2C2(CC2)C1=O [Compound 35, N-(3-(2'-(cyclopropylamino)-7'-oxo-5'H-spiro[cyclopropane-1,8'-pyrido[4,3-d]pyrimidine]-6'(7'H)-yl)-4-methylphenyl)-3-(piperazin-1-yl)-5-(trifluoromethyl)benzamide]",5 to 10 µM
5,"Cc1ccc(NC(=O)c2cc(N3CCNCC3)cc(C(F)(F)F)c2)cc1N1Cc2cnc(N)nc2C2(CC2)C1=O [Compound 34, N-(3-(2'-amino-7'-oxo-5'H-spiro[cyclopropane-1,8'-pyrido[4,3-d]pyrimidine]-6'(7'H)-yl)-4-methylphenyl)-3-(piperazin-1-yl)-5-(trifluoromethyl)benzamide]",5 to 10 µM
6,"Cc1ccc(NC(=O)c2cc(C(F)(F)F)ccc2F)cc1N1Cc2cnc(N)nc2C2(CC2)C1=O [Compound 18, N-(3-(2'-amino-7'-oxo-5'H-spiro[cyclopropane-1,8'-pyrido[4,3-d]pyrimidine]-6'(7'H)-yl)-4-methylphenyl)-2-fluoro-5-(trifluoromethyl)benzamide]",> 10 µM
7,"Cc1ccc(NC(=O)c2cc(N3CCN(C)CC3)cc(C(F)(F)F)c2)cc1N1Cc2cnc(NC3CC3)nc2C2(CC2)C1=O [Compound 32, N-(3-(2'-(cyclopropylamino)-7'-oxo-5'H-spiro[cyclopropane-1,8'-pyrido[4,3-d]pyrimidine]-6'(7'H)-yl)-4-methylphenyl)-3-(4-methylpiperazin-1-yl)-5-(trifluoromethyl)benzamide]",1 to 5 µM
8,"Cc1ccc(NC(=O)c2cccc(C(F)(F)F)n2)cc1N1Cc2cnc(N)nc2C2(CC2)C1=O [Compound 21, N-(3-(2'-amino-7'-oxo-5'H-spiro[cyclopropane-1,8'-pyrido[4,3-d]pyrimidine]-6'(7'H)-yl)-4-methylphenyl)-6-(trifluoromethyl)picolinamide]",> 10 µM
9,"Cc1ccc(NC(=O)c2cc(N(C)CCN(C)C)cc(C(F)(F)F)c2)cc1N1Cc2cnc(N)nc2C2(CC2)C1=O [Compound 37, N-(3-(2'-amino-7'-oxo-5'H-spiro[cyclopropane-1,8'-pyrido[4,3-d]pyrimidine]-6'(7'H)-yl)-4-methylphenyl)-3-((2-(dimethylamino)ethyl)(methyl)amino)-5-(trifluoromethyl)benzamide]",> 10 µM
10,"Cc1ccc(NC(=O)c2ccnc(C(F)(F)F)c2)cc1N1Cc2cnc(N)nc2C2(CC2)C1=O [Compound 22, N-(3-(2'-amino-7'-oxo-5'H-spiro[cyclopropane-1,8'-pyrido[4,3-d]pyrimidine]-6'(7'H)-yl)-4-methylphenyl)-2-(trifluoromethyl)isonicotinamide]",> 10 µM
11,"Cc1ccc(NC(=O)c2cc(Br)cc(C(F)(F)F)c2)cc1N1Cc2cnc(NC3CC3)nc2C2(CC2)C1=O [Compound 13, 3-bromo-N-(3-(2'-(cyclopropylamino)-7'-oxo-5'H-spiro[cyclopropane-1,8'-pyrido[4,3-d]pyrimidine]-6'(7'H)-yl)-4-methylphenyl)-5-(trifluoromethyl)benzamide]",> 10 µM
12,"Cc1ccc(NC(=O)c2cc(F)cc(F)c2)cc1N1Cc2cnc(NC3CC3)nc2C2(CC2)C1=O [Compound 11, N-(3-(2'-(cyclopropylamino)-7'-oxo-5'H-spiro[cyclopropane-1,8'-pyrido[4,3-d]pyrimidine]-6'(7'H)-yl)-4-methylphenyl)-3,5-difluorobenzamide]",> 10 µM
13,"Cc1ccc(NC(=O)c2ccc(F)c(F)c2)cc1N1Cc2cnc(NC3CC3)nc2C2(CC2)C1=O [Compound 10, N-(3-(2'-(cyclopropylamino)-7'-oxo-5'H-spiro[cyclopropane-1,8'-pyrido[4,3-d]pyrimidine]-6'(7'H)-yl)-4-methylphenyl)-3,4-difluorobenzamide]",> 10 µM
14,"COCCN(C)c1cc(C(=O)Nc2ccc(C)c(N3Cc4cnc(NC5CC5)nc4C4(CC4)C3=O)c2)cc(C(F)(F)F)c1 [Compound 30, N-(3-(2'-(cyclopropylamino)-7'-oxo-5'H-spiro[cyclopropane-1,8'-pyrido[4,3-d]pyrimidine]-6'(7'H)-yl)-4-methylphenyl)-3-((2-methoxyethyl)(methyl)amino)-5-(trifluoromethyl)benzamide]",1 to 5 µM
15,"Cc1ccc(NC(=O)c2cc(N3CCN(C)CC3)cc(C(F)(F)F)c2)cc1N1Cc2cnc(N)nc2C2(CC2)C1=O [Compound 33, N-(3-(2'-amino-7'-oxo-5'H-spiro[cyclopropane-1,8'-pyrido[4,3-d]pyrimidine]-6'(7'H)-yl)-4-methylphenyl)-3-(4-methylpiperazin-1-yl)-5-(trifluoromethyl)benzamide]",5 to 10 µM
16,"Cc1ccc(NC(=O)c2cc(F)cc(C(F)(F)F)c2)cc1N1Cc2cnc(NC3CC3)nc2C2(CC2)C1=O [Compound 27, N-(3-(2'-(cyclopropylamino)-7'-oxo-5'H-spiro[cyclopropane-1,8'-pyrido[4,3-d]pyrimidine]-6'(7'H)-yl)-4-methylphenyl)-3-fluoro-5-(trifluoromethyl)benzamide]",5 to 10 µM
17,"Cc1ccc(NC(=O)c2cc(O)cc(C(F)(F)F)c2)cc1N1Cc2cnc(N)nc2C2(CC2)C1=O [Compound 23, N-(3-(2'-amino-7'-oxo-5'H-spiro[cyclopropane-1,8'-pyrido[4,3-d]pyrimidine]-6'(7'H)-yl)-4-methylphenyl)-3-hydroxy-5-(trifluoromethyl)benzamide]",5 to 10 µM
18,"Cc1ccc(NC(=O)c2ccc(F)c(F)c2)cc1N1Cc2cnc(N)nc2C2(CC2)C1=O [Compound 9, N-(3-(2'-amino-7'-oxo-5'H-spiro[cyclopropane-1,8'-pyrido[4,3-d]pyrimidine]-6'(7'H)-yl)-4-methylphenyl)-3,4-difluorobenzamide]",> 10 µM
19,"Cc1ccc(NC(=O)c2cc(C(F)(F)F)cc(Cl)c2F)cc1N1Cc2cnc(N)nc2C2(CC2)C1=O [Compound 17, N-(3-(2'-amino-7'-oxo-5'H-spiro[cyclopropane-1,8'-pyrido[4,3-d]pyrimidine]-6'(7'H)-yl)-4-methylphenyl)-3-chloro-2-fluoro-5-(trifluoromethyl)benzamide]",> 10 µM
20,"Cc1ccc(NC(=O)c2ccc(C)c(C(F)(F)F)c2)cc1N1Cc2cnc(NC3CC3)nc2C2(CC2)C1=O [Compound 12, N-(3-(2'-(cyclopropylamino)-7'-oxo-5'H-spiro[cyclopropane-1,8'-pyrido[4,3-d]pyrimidine]-6'(7'H)-yl)-4-methylphenyl)-4-methyl-3-(trifluoromethyl)benzamide]",1 to 5 µM
21,"COc1cccc(C(=O)Nc2ccc(C)c(N3Cc4cnc(N)nc4C4(CC4)C3=O)c2)c1 [Compound 16, N-(3-(2'-amino-7'-oxo-5'H-spiro[cyclopropane-1,8'-pyrido[4,3-d]pyrimidine]-6'(7'H)-yl)-4-methylphenyl)-3-methoxybenzamide]",> 10 µM
